{"source": "patent US20250049926A1", "about": "“PHARMACEUTICAL COMPOSITIONS COMPRISING MODIFIED BETACYCLODEXTRINS” (priority 2021, published 2025)", "assay": "Solubility measurement of saturated solutions by HPLC at room temperature (0 h and 24 h)", "type": "physicochemical", "details": "buffered water with excipients, pH 4, aqueous with cosolvent or surfactant or cyclodextrin, thermodynamic from solid", "description": "The vial contents are prepared starting with 2.5 mg of the compound of formula (I). The primary excipient is added followed by any further excipient and then the buffered water to a total volume of 500 μL. All components are mixed in a vortex mixer for ca. 5 minutes. If everything is dissolved an additional 2.5 mg of the compound of formula (I) is added and vortexed again for ca. 5 minutes. This is repeated until a saturated solution (suspension) is obtained.\nThe solubility in vial 1 is measured immediately as described below.\nTo measure solubility 400 μl of the suspension are taken and placed in a centrifugation device above a 0.2 μm filter. Centrifugation is performed at 14,000 rpm for 10 minutes and if necessary repeated for additional 10 minutes. The filter is removed from the vial and 100 μL is taken and diluted with 400 μL high-performance liquid chromatography (HPLC) diluent solution (see below) or diluted with 900 μL HPLC diluent solution in the event 5 mg or more of the compound of formula (I) was used. The pH of the solution is measured. A further 100 μL of the vial solution is taken and diluted with 400 μL of HPLC diluent solution or diluted with 900 μL HPLC diluent solution in the event 5 mg or more of the compound of formula (I) was used. The assay of the solution versus control stock solution is measured by HPLC and the solubility is calculated as described below. The HPLC diluent solution is 0.1% trifluoroacetic acid (TFA) in acetonitrile (ACN) and water (1:1 v/v).\nAll solubility tests are performed at room temperature.\nThe HPLC method for assessing solubility is performed as follows:\nThe solubility of the compound of formula (I) is calculated according to the following formula:\n[formula] • Solubility=solubility of compound of formula (I) (mg/mL) • A=peak area of the compound of the sample tested • a=value of constant “a” in Linear regression equation y=ax+b • b=value of constant “b” in Linear regression equation y=ax+b • n=dilution time • Formulations for stability assessment are prepared as follows: […]"}
{"smiles": "COc1cc(N2CCNCC2)ccc1Nc1ncc2c(n1)-n1ccc(C(=O)Nc3c(C)cccc3C)c1CC2", "note": "[compound of formula (I)]", "values": [{"measurement": "solubility at 0 h", "setting": "CBS 30 mM pH 4.0, NaCl 3 mg/mL, SBE-beta-CD 40 mg/mL + Kollidon 12 P188 5 mg/mL, pH exp 4.1", "result": 2590, "unit": "µg/mL"}, {"measurement": "solubility at 24 h", "setting": "CBS 30 mM pH 4.0, NaCl 3 mg/mL, SBE-beta-CD 40 mg/mL + Kollidon 12 P188 5 mg/mL, pH exp 4.2", "result": 3710, "unit": "µg/mL"}, {"measurement": "solubility at 0 h", "setting": "CBS 30 mM pH 4.0, NaCl 3 mg/mL, SBE-beta-CD 40 mg/mL + Na CMC 5 mg/mL, pH exp 4.1", "result": 1710, "unit": "µg/mL"}, {"measurement": "solubility at 24 h", "setting": "CBS 30 mM pH 4.0, NaCl 3 mg/mL, SBE-beta-CD 40 mg/mL + Na CMC 5 mg/mL, pH exp n. a.", "result": 2670, "unit": "µg/mL"}, {"measurement": "solubility at 0 h", "setting": "CBS 30 mM pH 4.0, NaCl 3 mg/mL, SBE-beta-CD 40 mg/mL + PEG 400 1 mg/mL, pH exp 4.1", "result": 2480, "unit": "µg/mL"}, {"measurement": "solubility at 24 h", "setting": "CBS 30 mM pH 4.0, NaCl 3 mg/mL, SBE-beta-CD 40 mg/mL + PEG 400 1 mg/mL, pH exp 4.2", "result": 3730, "unit": "µg/mL"}, {"measurement": "solubility at 0 h", "setting": "CBS 30 mM pH 4.0, NaCl 3 mg/mL, SBE-beta-CD 40 mg/mL + PEG 400 5 mg/mL, pH exp 4.1", "result": 2340, "unit": "µg/mL"}, {"measurement": "solubility at 24 h", "setting": "CBS 30 mM pH 4.0, NaCl 3 mg/mL, SBE-beta-CD 40 mg/mL + PEG 400 5 mg/mL, pH exp 4.2", "result": 3750, "unit": "µg/mL"}, {"measurement": "solubility at 0 h", "setting": "CBS 30 mM pH 4.0, NaCl 3 mg/mL, SBE-beta-CD 40 mg/mL + PEG 400 10 mg/mL, pH exp 4.1", "result": 2590, "unit": "µg/mL"}, {"measurement": "solubility at 24 h", "setting": "CBS 30 mM pH 4.0, NaCl 3 mg/mL, SBE-beta-CD 40 mg/mL + PEG 400 10 mg/mL, pH exp 4.2", "result": 3790, "unit": "µg/mL"}, {"measurement": "solubility at 0 h", "setting": "CBS 30 mM pH 4.0, NaCl 3 mg/mL, SBE-beta-CD 40 mg/mL + PEG 400 20 mg/mL, pH exp 4.1", "result": 2570, "unit": "µg/mL"}, {"measurement": "solubility at 24 h", "setting": "CBS 30 mM pH 4.0, NaCl 3 mg/mL, SBE-beta-CD 40 mg/mL + PEG 400 20 mg/mL, pH exp 4.2", "result": 3810, "unit": "µg/mL"}, {"measurement": "solubility at 0 h", "setting": "CBS 30 mM pH 4.0, NaCl 3 mg/mL, SBE-beta-CD 40 mg/mL + PEG 400 30 mg/mL, pH exp 4.1", "result": 2670, "unit": "µg/mL"}, {"measurement": "solubility at 24 h", "setting": "CBS 30 mM pH 4.0, NaCl 3 mg/mL, SBE-beta-CD 40 mg/mL + PEG 400 30 mg/mL, pH exp 4.2", "result": 3860, "unit": "µg/mL"}, {"measurement": "solubility at 0 h", "setting": "CBS 30 mM pH 4.0, NaCl 3 mg/mL, SBE-beta-CD 40 mg/mL + PEG 4000 5 mg/mL, pH exp 4.1", "result": 2420, "unit": "µg/mL"}, {"measurement": "solubility at 24 h", "setting": "CBS 30 mM pH 4.0, NaCl 3 mg/mL, SBE-beta-CD 40 mg/mL + PEG 4000 5 mg/mL, pH exp 4.2", "result": 3670, "unit": "µg/mL"}, {"measurement": "solubility at 0 h", "setting": "CBS 30 mM pH 4.0, NaCl 3 mg/mL, SBE-beta-CD 40 mg/mL + Soybean lecithin 10 mg/mL, pH exp 4.1", "result": 2520, "unit": "µg/mL"}, {"measurement": "solubility at 24 h", "setting": "CBS 30 mM pH 4.0, NaCl 3 mg/mL, SBE-beta-CD 40 mg/mL + Soybean lecithin 10 mg/mL, pH exp 4.3", "result": 3600, "unit": "µg/mL"}, {"measurement": "solubility at 0 h", "setting": "CBS 30 mM pH 4.0, NaCl 3 mg/mL, SBE-beta-CD 40 mg/mL + Tween 80 5 mg/mL, pH exp 4.1", "result": 2950, "unit": "µg/mL"}, {"measurement": "solubility at 24 h", "setting": "CBS 30 mM pH 4.0, NaCl 3 mg/mL, SBE-beta-CD 40 mg/mL + Tween 80 5 mg/mL, pH exp 4.2", "result": 4040, "unit": "µg/mL"}, {"measurement": "solubility at 0 h", "setting": "CBS 30 mM pH 4.0, NaCl 6 mg/mL, SBE-beta-CD 40 mg/mL + Kollidon 12 PF 2.5 mg/mL, pH exp 4.1", "result": 2370, "unit": "µg/mL"}, {"measurement": "solubility at 24 h", "setting": "CBS 30 mM pH 4.0, NaCl 6 mg/mL, SBE-beta-CD 40 mg/mL + Kollidon 12 PF 2.5 mg/mL, pH exp 4.3", "result": 3690, "unit": "µg/mL"}, {"measurement": "solubility at 0 h", "setting": "CBS 30 mM pH 4.0, NaCl 6 mg/mL, SBE-beta-CD 40 mg/mL + Kollidon 12 PF 5 mg/mL, pH exp 4.0", "result": 2510, "unit": "µg/mL"}, {"measurement": "solubility at 24 h", "setting": "CBS 30 mM pH 4.0, NaCl 6 mg/mL, SBE-beta-CD 40 mg/mL + Kollidon 12 PF 5 mg/mL, pH exp 4.2", "result": 3750, "unit": "µg/mL"}, {"measurement": "solubility at 0 h", "setting": "CBS 30 mM pH 4.0, NaCl 6 mg/mL, SBE-beta-CD 40 mg/mL + Kollidon 12 PF 10 mg/mL, pH exp 4.1", "result": 2520, "unit": "µg/mL"}, {"measurement": "solubility at 24 h", "setting": "CBS 30 mM pH 4.0, NaCl 6 mg/mL, SBE-beta-CD 40 mg/mL + Kollidon 12 PF 10 mg/mL, pH exp 4.2", "result": 3700, "unit": "µg/mL"}, {"measurement": "solubility at 0 h", "setting": "CBS 30 mM pH 4.0, NaCl 6 mg/mL, SBE-beta-CD 40 mg/mL + Propylene glycol 5 mg/mL, pH exp 4.1", "result": 2360, "unit": "µg/mL"}, {"measurement": "solubility at 24 h", "setting": "CBS 30 mM pH 4.0, NaCl 6 mg/mL, SBE-beta-CD 40 mg/mL + Propylene glycol 5 mg/mL, pH exp 4.3", "result": 3820, "unit": "µg/mL"}]}
